According to patent EP3095872A1, “A METHOD OF PRODUCING ALPHA AMINO ACIDS” (Evonik Degussa GmbH, priority 2015, dated 2016):
Read-outs that look alike come from different tables or passages of the source. Marks after values point to notes of the source that are not given here.

What was measured:
Format in all cases: biochemical
P450Cla [1] = experiment: conversion of fatty acid substrate with P450Cla, oxidant O2 + NADPH; conditions: 10 mM substrate, without CamAB
Description: (§1) P450BSß was expressed and purified as described in Matsunaga et al. 2001. P450Cla was ordered as synthetic gene and cloned into the pET28a expression vector. Efficient expression of P450Cla was obtained by applying the expression protocol (TBmedia, 20 h, 30 °C) as described in Nazor et al. (2008) under heading 'shake flask expression of P450 BM3'. Purification was performed according to the published protocol (Girhard M., et al, 2007) with minor alterations as (unreported) precipitation of P450Cla during dialysis occured. The dialysis buffer was supplemented with 300 mM NaCl to prevent precipitation of P450Cla. Next, hydroxylation of fatty acid substrates 1a-d (scheme 2) was performed employing purified P450Cla and P450BSß. The oxidant source was varied in case of P450Cla while only H2O2 was used with P450BSß. Table 2: Conversion of fatty acid substrates 1a-d with P450Cla and CYPBSß
(§2) All reactions were performed in closed glass vials for 24 h reaction time at RT with 170 rpm shaking. The reactions were quenched by addition of 100 µl 5 N HCl. Extractions were performed with 500 µl EtOAc containing 0.1 % 1-decanol as internal standard. After drying over Na2SO4, derivatization of acids to corresponding methyl esters was realized by mixing 150 µl of organic phase with 90µl of MeOH prior to supplementation of 20 µl of TMSCHN2 for esterification. Samples were analyzed by GC-FID and GC-MS. […]

P450Cla [2] = experiment: conversion of fatty acid substrates 1a-d with P450Cla, oxidant H2O2; conditions: 3 µM P450Cla, 24 h, RT, values marked a based on substrate depletion
Description: P450Cla was ordered as synthetic gene and cloned into the pET28a expression vector. […] The dialysis buffer was supplemented with 300 mM NaCl to prevent precipitation of P450Cla. Next, hydroxylation of fatty acid substrates 1a-d (scheme 2) was performed employing purified P450Cla and P450BSß. The oxidant source was varied in case of P450Cla while only H2O2 was used with P450BSß.
Reaction conditions for P450Cla: 3µM P450Cla; Tris-HCl (pH 7.5; 0.1 M); 2.5 to 5 % EtOH (cosolvent for the substrate).
All reactions were performed in closed glass vials for 24 h reaction time at RT with 170 rpm shaking. The reactions were quenched by addition of 100 µl 5 N HCl. Extractions were performed with 500 µl EtOAc containing 0.1 % 1-decanol as internal standard. After drying over Na2SO4, derivatization of acids to corresponding methyl esters was realized by mixing 150 µl of organic phase with 90µl of MeOH prior to supplementation of 20 µl of TMSCHN2 for esterification. Samples were analyzed by GC-FID and GC-MS. Commercial standards of 2-hydroxycaproic acid (2a), 2-hydroxyoctanoic acid (2b) and 2-oxooctanoic acid (4b) were used as references. Calibration curves were obtained from standards 1a-d and 2a-b prepared identically to the reaction mixtures (5 concentration points from 10 µM to 1 mM).

P450Cla+CamAB = experiment: conversion of fatty acid substrate with P450Cla+CamAB, oxidant O2 + NADPH; conditions: 10 mM substrate, % of the product area of the reaction with H2O2 and 10 mM 1d
Description: as §1, §2

HICDH-proteins = experiment: spectrophotometric monitoring (340 nm) and GC-FID of HICDH oxidation and reduction
P450Cla [3] = experiment: alpha-hydroxylation of selected fatty acids, catalytic and kinetic characterization of P450Cla; conditions: for Product: 10 mM fatty acid, 0.5 µM P450Cla (C10), 1 µM (C8, C6), Tris-HCl pH 7.5, RT, triplicate; for specific activity U mg^-1: P450Cla 48 kDa, values only relevant at initial rate; for Coupling*: mol product per mol H2O2
Description: Hydroxylation of selected fatty acids was carried out using a fresh preparation of purified P450Cla. P450Cla was characterised for key catalytic parameters specific activities were determined for three selected substrates as shown in Table 1. Table 1: Catalytic and kinetic characterization of P450Cla for conversion of 10 mM of selected fatty acids. All reactions were performed in triplicate.
Conditions: 0.5 µM P450Cla used in reactions with C10; 1 µM P450Cla used in reactions with C8 and C6; All reactions were performed in Tris-HCl (pH 7.5, 0.1 M) at RT and 170 rpm shaking in closed glass vials; *molProduct^-1 molH2O2^-1; ^§molecular weight of P450Cla is 48 kDa, values only relevant at initial rate.

P450Cla [4] = experiment: preparative scale conversion of decanoic acid with P450Cla; conditions: 20 mM decanoic acid; 4 µM P450Cla; 32 mM H2O2 in total; 24 h
Description: Synthesis of 2-hydroxydecanoic acid was done in 10 ml Tris-HCl (pH 7.5; 0.1 M) employing 4µM P450Cla, 20 mM decanoic acid (38.8 mg of the sodium salt) and 2.5 % EtOH (RT, 170 rpm shaking). Hydrogen peroxide (1.6 mM) was added every 30 min (20 times; in total 32 mM) to the reaction mixture. After 24 h reaction time, 1 ml 5 N HCl was added to stop the reaction. Product extraction was repeated five times using 5 ml EtOAc prior to purification by silica chromatography column using EtOAc/petroleum ether/acetic acid as mobile phase (80:20:1.2). Fractions containing the desired product were combined and concentrated by evaporation under reduced pressure. With the present set up, 16 mg of 2-hydroxydecanoic acid (46 % isolated yield, TTNP450 ∼ 3040) was isolated which was confirmed by GC-MS, 1 H- and 13C-NMR (Figure 1).

`CCCCCCCCCCCC(=O)O` [Substrate 1d, dodecanoic acid] was tested, and the Conversion (P450Cla [1]) was 0%, the Conversion (P450Cla [2]; 5 mM substrate, H2O2 9.6 mM total) was >99^a % and the Conversion (P450Cla [2]; 10 mM substrate, H2O2 19.2 mM total) was >99^a %. For the same compound, the Conversion (P450Cla+CamAB) was 5^b %.

For `CCCCCCC(=O)C(=O)O` [Substrate 4b, 2-oxooctanoic acid], the “Reduction to 2-hydroxy octanoic acid 2b (GC-FID)” value (HICDH-proteins) was “confirmed”.

For `CCCCCCCCCC(=O)O` [Substrate C10, decanoic acid], the “Selectivity [% α-OH]” value (P450Cla [3]) was greater than 90%, the specific activity (P450Cla [3]) was no less than 1 U mg^-1 and the Product (P450Cla [3]; 5 min, H2O2 0.8 mM) was 0.67 ± 0.04 mM. For the same compound, the Product (P450Cla [3]; 15 min, H2O2 0.8 mM) was 0.6 ± 0.02 mM, the Product (P450Cla [3]; 30 min, H2O2 1.6 mM) was 1.2 ± 0.06 mM and the “Selectivity [% α-OH]” value (P450Cla [3]; 5 min, H2O2 0.8 mM) was greater than 95%. For the same compound, the TON (P450Cla [3]; 5 min, H2O2 0.8 mM) was 266 min⁻¹, the TTN (P450Cla [3]; 5 min, H2O2 0.8 mM) was 1330 and the “specific activity U mg^-1” value (P450Cla [3]; 5 min, H2O2 0.8 mM) was 5.5 U mg^-1. The “Coupling*” value (P450Cla [3]; 5 min, H2O2 0.8 mM) was 83%, the “Selectivity [% α-OH]” value (P450Cla [3]; 15 min, H2O2 0.8 mM) was greater than 95% and the TON (P450Cla [3]; 15 min, H2O2 0.8 mM) was 80 min⁻¹. For the same compound, the TTN (P450Cla [3]; 15 min, H2O2 0.8 mM) was 1207, the “specific activity U mg^-1” value (P450Cla [3]; 15 min, H2O2 0.8 mM) was 1.7 U mg^-1 and the “Coupling*” value (P450Cla [3]; 15 min, H2O2 0.8 mM) was 75%. For the same compound, the “Selectivity [% α-OH]” value (P450Cla [3]; 30 min, H2O2 1.6 mM) was greater than 95%, the TON (P450Cla [3]; 30 min, H2O2 1.6 mM) was 80 min⁻¹ and the TTN (P450Cla [3]; 30 min, H2O2 1.6 mM) was 2406. The “specific activity U mg^-1” value (P450Cla [3]; 30 min, H2O2 1.6 mM) was 1.7 U mg^-1, the “Coupling*” value (P450Cla [3]; 30 min, H2O2 1.6 mM) was 75% and the TTNP450 (P450Cla [4]) was roughly 3040.
